Test results from patent US20150164117A1, “ENCAPSULATION OF FRAGRANCE AND/OR FLAVORS IN SILK FIBROIN BIOMATERIALS” (Tufts University, priority 2012, published 2015).
“And” between values parts separate entries of the source, which are not always exact repeats. Equal entries are not always repeated. Blank lines part the entries; values can stand above or below the molecule they belong to.

Assays:
[1] = Size of fragrance-loaded silk microparticles from silk/fragrance emulsions; assay type: physicochemical; conditions: n = 3
Procedure: To determine the effectiveness of encapsulation of a silk based oil-water-oil system, fragrance oils targeted for encapsulation were added to the silk/polyvinyl alcohol (PVA) aqueous phase at ratios ranging from 1:2 up to 1:8 (v:v). The ratio of silk to fragrance oils was altered prior to sonication and addition of secondary oil phase. […] Formation of fragrance-loaded silk microparticles was more challenging at ˜1% silk concentrations for any of the fragrances tested.
The water phase was created by combining 5:1 (v:v) silk fibroin solution with 3% (w/v) PVA solution. The oil fragrance targeted for encapsulation was manually added to an aqueous phase. The stable primary O/W emulsion was sonicated (20% for 20 seconds) to disperse the oil, reduce the diameter of the oil particles and initiate β-sheet formation. The vegetable oil (sunflower oil) was added as the secondary oil phase at a 10:1 volumetric ratio with respect to the primary emulsion. The O/W/O emulsion was vortexed at high speed for 30 seconds and incubated overnight at room temperature. The microparticles were collected via centrifugation, and excess oil was removed by two successive ethanol rinses. The isolated particles were resuspended in deionized water and stored at room temperature.

[2] = cited from earlier work
[3] = Interfacial tension between silk solution and limonene (pendant drop); assay type: physicochemical
Procedure: To elucidate the interaction of silk and the fragrance oils the interfacial tension was measured. Interfacial tension between the two liquids dictates emulsion stability and ultimately microparticle size and distribution (Terjung et al., 2012). Various silk concentrations were assessed along with three silk molecular weight ranges: low, medium and high based on degumming times of ˜60, ˜30 and ˜10 minutes respectively. […] Interfacial tension drops when the molecular weight of the silk protein is decreased. This is in agreement with other studies that show a dependence of surface tension on molecular weight and molecular chain branching (Dettre et al., 1966 and Legrand et al., 1969). […] The highest interfacial tension was 8.16+/−0.57 mN/m for the […] molecular weight silk at a concentration of about 2%. […] Hung et al. discussed that an increase in the concentration of short chain molecules can correspond to a decrease in interfacial tension in an aqueous system (Ly et al. 2004). This is a behavior indicative of emulsifiers, which traditionally serve to stabilize mixtures and generally show better stability with increase in concentration (Djakovic et al., 1987).
Interfacial tension measurements were made using a Ramé-Hart Goniometer (Model 200) running DROPimage Standard analysis software. A silk solution drop of known volume was suspended on the tip of a needle which was submerged in the fragrant oil creating a pendent drop. The DROPimage software used the pendant drop image as well as known density values to calculate interfacial tension at the liquid-liquid interface.

[4] = TGA with stepwise isothermal segments, fragrance protection by PEO/silk coatings; assay type: physicochemical; conditions: limonene containing microparticles
Excerpt: It has been previously discussed that hydrated barriers can alter the rate of compound release from aqueous silk, hyaluronic acid, gelatin, and alginate constructs (Guziewicz et al., 2011; Elia et al., 2011; Omi et al., 1991; Sriamornsak et al., 2007; Chan et al., 2007; and Li et al., 2006). In combination with the hydrophobic nature of the fragrances, a protective barrier designed to maintain moisture can be desired. The coating scheme is illustrated in FIG. 27A. Each coating comprises a polyethylene oxide (PEO) layer surrounded by a silk fibroin film. Particles were coated with one, three or five coatings and a modified TGA was performed to assess fragrance retention. […] FIGS. 27B-27D depict scanning electron micrographs of these particles.
(§1) Thermogravimetric analysis (TGA) (TA Instruments Q500) was used to measure weight changes in the microparticles. For rapid estimates of microparticle composition the TGA was heated from 23° C. to 500° C. at a rate of ˜20° C./min. To distinguish surface fragrance from encapsulated fragrance, samples were run with a ˜250 minute incubation at 50° C. prior to continued heating. For analysis of fragrance protection the TGA was held isothermal for 30 minutes every 20° C. interval from 70° C. up to 210° C. For each segment weight loss was monitored and attributed to fragrance release from the microparticles.

[5] = Limonene release in water from limonene/silk/PVA microparticles (TGA after soaking); assay type: physicochemical
Procedure: FIGS. 22A-22B are data graphs showing retention/release of fragrance from the fragrance-encapsulated silk microparticles under a specified condition. The microparticles were then diluted in water and passed through 120 μm filter. The isolated microparticles were then incubated in water to determine fragrance release over time. FIG. 22A is a data graph of TGA (performed with ˜250 min 50° C. incubation, followed by ramping to 400° C. at 5° C./min) showing weight loss of fragrance-encapsulated silk microparticles over a period of time when subjected to various temperatures. […] These silk microparticles show retention across 14 days without any additional coatings. FIG. 22B is a bar graph showing percents of encapsulated limonene release in water from O/W/O PVA silk microparticles without coatings. Using the “no release” as the reference point for fragrance content, there was about 2-3% difference in mass for fragrance-encapsulated silk microparticles soaked in water. Mass loss corresponds to fragrance loss during soaking in an aqueous environment, with an increase of fragrance release after longer exposure to the aqueous environment.

[6] = assay type: physicochemical
Procedure: To determine fragrance content, thermogravimetric analysis (TGA) was performed on fragrance-loaded sill microparticles. Samples were allowed to air dry for 24 hours prior to analysis. FIGS. 18D-18F depict the results of the TGA for encapsulation of three fragrances, while FIGS. 18A-18C show the individual emulsion components. A small increase in temperature causes the ethanol to volatilize rapidly, while the silk and vegetable oil only begin to degrade at temperatures of 220° C. and 300° C. respectively. The fragrances used are highly volatile and were expected to vaporize well before the silk and oil components. As shown in FIG. 18D-18F, it is difficult to distinguish the fragrance component from the ethanol, they are both released from the microparticles in the same temperature range. To estimate the fragrance content, the change in rate of weight loss during heating from 23° C. to 100° C. was taken as the transition between primarily ethanol evaporation prior to change in rate and fragrances loss subsequently.
To address concerns with release between ethanol and the encapsulated fragrance, a 250 minute incubation at 50° C. was employed during a second set of TGA runs. This incubation was added to ensure that any free surface fragrance and ethanol would vaporize prior to further temperature ramping. After incubation the silk particles contain fragrance only if it was entrapped within the silk.
as §1

[7] = Dissolution of untreated loaded silk films and release of load in aqueous medium; assay type: physicochemical
Procedure: Rapid dissolution of films loaded with a dye and release of the dye from the films occur when the films are immersed in ˜37° C. buffer (FIG. 10). Dissolvable silk films loaded with an odor-releasing substance and/or flavoring substance (e.g., ˜0.5, 0.25 or 0.125 mg of adenosine per 0.2 mm^2 film) released the majority of the drug load (approx. 80%) within 15 minutes of exposure to 37° C. phosphate buffered saline (PBS) (Data not shown).

[8] = silk concentration ~3%, fragrance:silk ~1:2
[9] = silk concentration ~5%, fragrance:silk ~1:2

Molecule: CCCC(C)C(=O)OCC (centres unmarked) [Applinate]
- Microparticle size ([1]; silk concentration 3%, fragrance:silk ~1:4): 9.53 ± 2.47 μm
- Microparticle size ([1]; silk concentration 3%, fragrance:silk ~1:8): 9.22 ± 2.79 μm
- Microparticle size ([1]; silk concentration 5%, fragrance:silk ~1:4): 9.64 ± 3.11 μm
- Microparticle size ([1]; silk concentration 5%, fragrance:silk ~1:8): 9.61 ± 2.40 μm
- Microparticle size [1, 8]: 8.49 ± 2.53 μm
- Microparticle size ([1]; silk concentration ~3%, fragrance:silk ~1:2, listed as applinate): 8.49+/−2.53 μm and 8.49 ± 2.53 μm
- Microparticle size [1, 9]: 8.11 ± 1.96 μm
- Microparticle size ([1]; silk concentration ~5%, fragrance:silk ~1:2, listed as applinate): 8.11+/−1.76 μm and 8.11 ± 1.96 μm
- Log P [2]: 2.76

Molecule: C/C=C/C(=O)C1C(C)C=CCC1(C)C (centres unmarked) [Delta-Damascone]
- Microparticle size [1, 8]: 7.60 ± 2.71 μm
- Microparticle size [1, 9]: 7.84 ± 1.49 μm
- Log P [2]: 3.91

Molecule: C=CC(C)CCCC(C)(C)O (centres unmarked) [Dihydromyrcenol]
- Microparticle size [1, 9]: 7.71 ± 1.82 μm
- Log P [2]: 3.25

Molecule: C=C(C)C1CC=C(C)CC1 (centres unmarked) [Limonene]
- Interfacial tension ([3]; between silk and limonene, lowest molecular weight and highest silk concentrations): 4.59+/−0.32 mN/m
- Interfacial tension ([3]; between silk and limonene, lowest molecular weight silk at about 2% (highest value found)): 8.16+/−0.57 mN/m
- Interfacial tension ([3]; limonene / 6% silk at 3.1 uM NaCl): 1.82+/−0.39 mN/m
- Interfacial tension ([3]; limonene / unaltered 6% silk (30 minute degummed), n=3): 4.78+/−0.28 mN/m
- Microparticle size [1, 8]: 9.57 ± 2.70 μm
- Microparticle size ([1]; silk concentration ~3%, fragrance:silk ~1:2, listed as limonene): 9.57+/−2.70 μm
- Microparticle size [1, 9]: 12.40 ± 4.76 μm
- Microparticle size ([1]; silk concentration ~5%, fragrance:silk ~1:2, listed as limonene): 12.40+/−4.96 μm
- Weight Loss (%), Total Loss ([4]; 1 PEO/silk coating, 70-210° C. segments): 8.2%
- Weight Loss (%) ([4]; 1 PEO/silk coating, isotherm segment 70° C.): 0.179%
- Weight Loss (%) ([4]; 1 PEO/silk coating, isotherm segment 90° C.): 1.024%
- Weight Loss (%) ([4]; 1 PEO/silk coating, isotherm segment 110° C.): 0.154%
- Weight Loss (%) ([4]; 1 PEO/silk coating, isotherm segment 130° C.): 0.342%
- Weight Loss (%) ([4]; 1 PEO/silk coating, isotherm segment 150° C.): 0.323%
- Weight Loss (%) ([4]; 1 PEO/silk coating, isotherm segment 170° C.): 0.367%
- Weight Loss (%) ([4]; 1 PEO/silk coating, isotherm segment 190° C.): 2.465%
- Weight Loss (%) ([4]; 1 PEO/silk coating, isotherm segment 210° C.): 3.3201%
- Weight Loss (%), Total Loss ([4]; 3 PEO/silk coatings, 70-210° C. segments): 1.2%
- Weight Loss (%) ([4]; 3 PEO/silk coatings, isotherm segment 70° C.): 0.035%
- Weight Loss (%) ([4]; 3 PEO/silk coatings, isotherm segment 90° C.): −0.019%
- Weight Loss (%) ([4]; 3 PEO/silk coatings, isotherm segment 110° C.): 0.091%
- Weight Loss (%) ([4]; 3 PEO/silk coatings, isotherm segment 130° C.): −0.102%
- Weight Loss (%) ([4]; 3 PEO/silk coatings, isotherm segment 150° C.): 0.056%
- Weight Loss (%) ([4]; 3 PEO/silk coatings, isotherm segment 170° C.): 0.288%
- Weight Loss (%) ([4]; 3 PEO/silk coatings, isotherm segment 190° C.): 0.328%
- Weight Loss (%) ([4]; 3 PEO/silk coatings, isotherm segment 210° C.): 0.478%
- Weight Loss (%), Total Loss (fragrance retention) ([4]; 5 PEO/silk coatings, 70-210° C. segments): 16.8%
- Weight Loss (%) ([4]; 5 PEO/silk coatings, isotherm segment 70° C.): 1.535%
- Weight Loss (%) ([4]; 5 PEO/silk coatings, isotherm segment 90° C.): 3.531%
- Weight Loss (%) ([4]; 5 PEO/silk coatings, isotherm segment 110° C.): 3.579%
- Weight Loss (%) ([4]; 5 PEO/silk coatings, isotherm segment 130° C.): 2.391%
- Weight Loss (%) ([4]; 5 PEO/silk coatings, isotherm segment 150° C.): 1.549%
- Weight Loss (%) ([4]; 5 PEO/silk coatings, isotherm segment 170° C.): 1.314%
- Weight Loss (%) ([4]; 5 PEO/silk coatings, isotherm segment 190° C.): 1.278%
- Weight Loss (%) ([4]; 5 PEO/silk coatings, isotherm segment 210° C.): 1.615%
- Difference in mass versus no release (fragrance loss on soaking in water) ([5]; uncoated limonene/silk/PVA O/W/O microparticles soaked in water, TGA): 2-3%
- Retention in water without additional coatings ([5]; uncoated limonene/silk/PVA microparticles incubated in water): 14 days
- Loss of limonene during incubation period ([6]; O/W/O microparticles, TGA with 250 minute incubation at 50° C.): majority of the limonene is lost
- Limonene fraction of microparticles ([6]; preformed PVA/silk microparticles soaked about 1 or about 24 hours in limonene oil, TGA): 85-90%

Molecule: Nc1ncnc2c1ncn2[C@@H]1O[C@H](CO)[C@@H](O)[C@H]1O [adenosine]
- Drug load released ([7]; dissolvable silk films, ~0.5, 0.25 or 0.125 mg per 0.2 mm^2 film, within 15 minutes in 37° C. PBS, data not shown): approx. 80%

The next lines start with the values.

- Time to full dissolution ([7]; untreated dye-loaded silk film immersed in ~37° C. water): about 30 minutes
Molecule: O=C1/C(=C2\Nc3ccc(S(=O)(=O)[O-])cc3C2=O)Nc2ccc(S(=O)(=O)[O-])cc21.[Na+].[Na+] [indigo carmine]

- Temperature at which degradation begins [6]: 300 °C
Molecule: vegetable oil
